Data reported in patent US8580579B2, “Hydrophilic and lipophilic rhodamines for labelling and imaging” (Max-Planck-Gesellschaft zur Foerderung der Wissenschaften …, priority 2009, dated 2013).
Entries after “also recorded” stand apart in the source; their conditions may differ. Read-outs that look alike come from different tables or passages of the source.

Experiments:
[1] = Spectral properties of commercially available dyes (Table 1); format: physicochemical; conditions: commercial dyes
[2] = Photostability order of commercial dyes; format: physicochemical; conditions: derived from the references to Table 1
Source text: Cytochem. 2003, 51, 1699-1712], and only in 2007 its structure has been reported [B. Agnew, K. R. Gee, T. G. Nyberg (Invitrogen), US Pat. 2007/0249014]. Along with rhodamines, the following substance classes were considered as leads for developing of the new fluorescent dyes: BODIPY® derivatives (represented by BODYPY® 630/650 in FIG. 4), carbopyronines (Atto 635 and 647), cyanine dyes (Cy® 5 and Alexa 647), structurally related hybrids of cyanine dyes and benzopyranes (DY-630/635/650) and oxazines (Evoblue 30). BODIPY® derivatives have a substantial drawback: sometimes, fluorescence intensity of their bioconjugates is not directly proportional to a number of labelled sites [R. P. Haugland, A Guide to Fluorescent Probes and Labelling Technologies, Invitrogen Corp., Carlsbad, 2005, p. 53]. Moreover, it is difficult to chemically modify a BODIPY residue in such a way that it becomes water-soluble and more photostable. Carbopyronines have been extensively studied by Drexhage et al. [e.g. A. Zilles, J. Arden-Jacob, K.-H. Drexhage, N. U. Kemnitzer, M. Hammers-Schneider (Atto-tec GmbH), WO 2005/003086 (13 Jan. 2005)]. The carbopyronine dye Atto 647N has been widely used for labelling in many “nanoscopic” studies. Quite recently first STED images of the living cells were recorded at a rate of 28 frames per seconds using this dye [V. Westphal, S. O. Rizzoli, M. A. Lauterbach, D. Kamin, R. Jahn, S. W. Hell, Science 2008, 320, 246-249]. In the course of this study, the movements of synaptic vesicles inside the axons of cultured neurons were recorded with a resolution of ca. 60 nm. […] However, it is not easy to further improve the properties of the carbopyronine dye Atto 647N and make it more hydrophilic. […] Lower photostability and moderate Φfl-values of cyanine dyes make them inappropriate as lead structures. Short lifetimes of the excited states and presumably low Φfl-values of oxazines (e.g. Evoblue 30), as well as their moderate photostability, make the optimization of their properties not very promising.

[3] = cited from earlier work
[4] = cited from earlier work; remark: listed apart in the source
[5] = UV-visible absorption and fluorescence spectra of the dyes of the invention; format: physicochemical
Protocol: UV-visible absorption spectra were recorded on a Varian Cary 4000 UV-Vis spectrophotometer, and fluorescence spectra on a Varian Cary Eclipse fluorescence spectrophotometer. Reactions were carried out upon magnetic stirring in Schlenk flasks equipped with septa or reflux condensers with bubble-counters under argon using a standard manifold with vacuum and argon lines. All NMR spectra are referenced to tetramethylsilane as an internal standard (δ=0 ppm) using the signals of the residual protons of CHCl3 (7.26 ppm) in CDCl3, CHD2OD (3.31 ppm) in CD3OD, HOD (4.75 ppm) in D2O, [D5]acetone (2.04 ppm) in [D6]acetone or [D5]DMSO (2.50 ppm) in [D6]DMSO. Multiplicities of signals are described as follows: s=singlet, br. s=broad singlet, d=doublet, t=triplet, q=quartet, quint=quintet, m=multiplet, mc=centrosymmetrical multiplet. Coupling constants (J) are given in Hz. Multiplicities in the ^13C NMR spectra were determined by APT (Attached Proton Test) measurements. Low resolution mass spectra (electro spray ionization, ESI) were obtained with LCQ and ESI-TOF mass-spectrometers (MICROTOF (focus), Fa. Bruker). The MICROTOF spectrometer equipped with ESI ion source Apollo and direct injector with LC autosampler Agilent RR 1200 was used for obtaining high resolution mass spectra (ESI-HRMS). ESI-HRMS were obtained also on APEX IV spectrometer (Bruker). HPLC system (Knauer): Smartline pump 1000 (2×), UV detector 2500, column thermostat 4000 (25° C.), mixing chamber, injection valve with 20 and 100 μL loop for the analytical and preparative columns, respectively; 6-port-3-channel switching valve; analytical column: Eurospher-100 C18, 5 μm, 250×4 mm, 1.1 mL/min; preparative column: Eurospher-100-5 C18, 5 μm, 250×8 mm, 3.7 mL/min; solvent A: water+0.1% v/v trifluoroacetic acid (TFA); solvent B: MeCN+0.1% v/v TFA; detection at 636 nm (if not stated otherwise). Normal phase analytical TLC was performed on MERCK ready-to-use plates with silica gel 60 (F254) and reversed phase TLC—on RP-18W/UV254 precoated TLC plates (Macherey-Nagel). Preparative TLC was performed on MERCK HPTLC silica gel 60 plates (10×10 cm, layer thickness 0.2 mm). Column chromatography: MERCK silica gel, grade 60, 0.04-0.063 mm or Polygoprep 60-50 C18 (Macherey-Nagel).

[6] = Fluorescence quantum yield, Atto 633 as reference; format: physicochemical; conditions: Atto 633 as reference (Φfl = 64% in aqueous buffer)
Source text: Moreover, intersystem crossing rates (kISC) and rates of the T1→S0 transitions were also found to be the same for both deuterated and undeuterated substances (see ref. to Table 2).

[7] = 8 M urea solution; cited from earlier work
[8] = Solubility and polarity of the dyes
[9] = Excited state lifetime and FCS study under single molecule conditions; format: physicochemical
[10] = Chemical and storage stability of dyes and reactive derivatives; format: physicochemical
[11] = physchem; conditions: water

Compound | Stokes shift [1] [nm] | Φfl in water [6] [%] | polarity [8] | order of the photoresistance [2] | Φfl ([3]; no solvent given in the cell) [%] | τfl ([3]; solvent not given) [ns] | Solubility (solvents) [4] | τfl ([3]; H2O) | ε · 10^−5 ([3]; solvent H2O) [M^−1 cm^−1] | λmax (abs.) ([3]; solvent H2O) [nm] | λmax (fl.) ([3]; solvent H2O) [nm] | solubility in water or aqueous buffers [8] | further results
CCN(CC)CC.CCN(CC)CC.CN1c2cc3c(cc2-c2sc(S(=O)(=O)O)cc2C1(C)C)C(c1c(F)c(SCC(=O)O)cc(F)c1S(=O)(=O)[O-])=c1cc2c(cc1O3)=[N+](C)C(C)(C)c1cc(S(=O)(=O)O)sc1-2 [Alexa ® 633] | 15 |  |  | Atto 633>Atto 647N>Alexa® 647>Alexa® 633>Cy® 5 |  | 3.2 | DMSO, H2O^3 |  |  |  |  |  | ε · 10^−5 ([3]; solvent MeOH): 1.0 M^−1 cm^−1; λmax (abs.) ([3]; solvent MeOH): 632 nm; λmax (fl.) ([3]; solvent MeOH): 647 nm
CC[N+]1=c2cc3c(cc2CCC1)=C(c1ccccc1C(=O)N(C)CCCC(=O)O)c1ccc(N(C)C)cc1C3(C)C [Atto 633] |  |  |  | Atto 633>Atto 647N>Alexa® 647>Alexa® 633>Cy® 5 | 64 |  | DMF, DMSO,; also recorded: (H2O) MeCN^2 | 3.2 (H2O) ns | 1.3 | 629 | 657 |  | 
CC1=CC(C)(C)N2CCCc3c4c(cc1c32)C(c1c(F)c(F)c(F)c(F)c1C(=O)[O-])=c1cc2c3c(c1O4)CCC[N+]=3C(C)(C)C=C2C [Compound 4] |  | 63 | non-polar |  |  |  |  |  |  |  |  | low solubility in water or aqueous buffers; also recorded: insoluble in water | λmax (abs.) ([5]; solvent MeOH): 616 nm; λmax (fl.) ([5]; solvent MeOH): 641 nm; absorption maximum [7]: 630 nm; emission maximum [7]: 655 nm; Solubility (solvents) [8]: CHCl3, THF; solubility in organic solvents [8]: soluble in most organic solvents
CC[N+]1=C(C=CC=CC=C2N(CCCCCC(=O)O)c3ccc(S(=O)(=O)O)cc3C2(C)C)C(C)(C)c2cc(S(=O)(=O)[O-])ccc21 [Cy ® 5] |  |  |  | Atto 633>Atto 647N>Alexa® 647>Alexa® 633>Cy® 5 |  |  |  | 0.9 (H2O)^1 ns | 2.5 | 647 | 663 |  | Φfl ([3]; PBS): 27%; τfl ([3]; PBS): 1 (PBS)^11 ns

More lines, main results first:

Stokes shift [1] [nm] | Φfl in water [6] [%] | polarity [8] | Compound | order of the photoresistance [2] | Φfl ([3]; no solvent given in the cell) [%] | τfl ([3]; solvent not given) [ns] | Solubility (solvents) [4] | τfl ([3]; H2O) | ε · 10^−5 ([3]; solvent H2O) [M^−1 cm^−1] | λmax (abs.) ([3]; solvent H2O) [nm] | λmax (fl.) ([3]; solvent H2O) [nm] | solubility in water or aqueous buffers [8] | further results
25 |  |  | CC[N+]1=c2cc3c(cc2C(C)CC1(C)C)=C(c1ccccc1C(=O)N(C)CCCC(=O)O)c1cc2c4c(c1C3(C)C)CCCN4CCC2.[O-][Cl+3]([O-])([O-])[O-] (mixture of isomers) [Atto 647N] | Atto 633>Atto 647N>Alexa® 647>Alexa® 633>Cy® 5 | 65 | 3.4 | DMF, DMSO |  |  |  |  |  | ε · 10^−5 ([3]; solvent PBS): 1.5 M^−1 cm^−1; λmax (abs.) ([3]; solvent PBS): 644 nm; λmax (fl.) ([3]; solvent PBS): 669 nm
 | 78 | polar; also recorded: hydrophilic | [2H]C1=C(C([2H])([2H])S(=O)(=O)O)c2cc3c(c4c2N(CCC4)C1(C([2H])([2H])[2H])C([2H])([2H])[2H])Oc1c2c4c(cc1=C3c1c(F)c(F)c(F)c(F)c1C(=O)N(C)CCC(=O)O)C(C([2H])([2H])S(=O)(=O)[O-])=C([2H])C(C([2H])([2H])[2H])(C([2H])([2H])[2H])[N+]=4CCC2 [Compound 6D] |  |  |  |  |  |  |  |  | soluble in water or aqueous buffers | Stokes shift ([5]; dyes of the invention): 23 nm; ε · 10^−5 ([5]; solvent H2O): 0.92 M^−1 cm^−1; λmax (abs.) ([5]; solvent H2O): 637 nm; λmax (fl.) ([5]; solvent H2O): 660 nm; τfl (excited state lifetime) [9]: 3.67^21 ns; stability in methanol or methanol-containing solutions [10]: rapid esterification of the β-alanine fragment with methanol; solubility [11]: > 100 mM
